Data on one molecule can be found in ChEMBL document CHEMBL1154346 (Bioorg Med Chem Lett, 2009).

For orientation: Ki means a measure of affinity in units of concentration, obtained from inhibition or displacement. Lower therefore signals higher affinity.

Data set [1] concerns the target Voltage-gated inwardly rectifying potassium channel KCNH2 (Homo sapiens, UniProt Q12809). Nature of the data set: Displacement of [3H]dofetilide from human ERG expressed in HEK293 cells. The data set is classed as cell-based. For orientation: Displacement assays read how much labelled ligand stays bound in the presence of the test substance.
A short description of data set [2]: Toxicity in iv dosed mouse assessed as loss of righting reflex. It is filed as organism-based. Conditions: in vivo, read-out: HD50 (the source's name).
The subject of a further data set is Canis familiaris. Nature of the data set: Cardiotoxicity in conscious dog assessed as prolongation of QT interval. To be noted: in vivo. The data set is classed as toxicity, organism-based, Canis lupus familiaris.

Chain of Voltage-gated inwardly rectifying potassium channel KCNH2 (Q12809 whole entry): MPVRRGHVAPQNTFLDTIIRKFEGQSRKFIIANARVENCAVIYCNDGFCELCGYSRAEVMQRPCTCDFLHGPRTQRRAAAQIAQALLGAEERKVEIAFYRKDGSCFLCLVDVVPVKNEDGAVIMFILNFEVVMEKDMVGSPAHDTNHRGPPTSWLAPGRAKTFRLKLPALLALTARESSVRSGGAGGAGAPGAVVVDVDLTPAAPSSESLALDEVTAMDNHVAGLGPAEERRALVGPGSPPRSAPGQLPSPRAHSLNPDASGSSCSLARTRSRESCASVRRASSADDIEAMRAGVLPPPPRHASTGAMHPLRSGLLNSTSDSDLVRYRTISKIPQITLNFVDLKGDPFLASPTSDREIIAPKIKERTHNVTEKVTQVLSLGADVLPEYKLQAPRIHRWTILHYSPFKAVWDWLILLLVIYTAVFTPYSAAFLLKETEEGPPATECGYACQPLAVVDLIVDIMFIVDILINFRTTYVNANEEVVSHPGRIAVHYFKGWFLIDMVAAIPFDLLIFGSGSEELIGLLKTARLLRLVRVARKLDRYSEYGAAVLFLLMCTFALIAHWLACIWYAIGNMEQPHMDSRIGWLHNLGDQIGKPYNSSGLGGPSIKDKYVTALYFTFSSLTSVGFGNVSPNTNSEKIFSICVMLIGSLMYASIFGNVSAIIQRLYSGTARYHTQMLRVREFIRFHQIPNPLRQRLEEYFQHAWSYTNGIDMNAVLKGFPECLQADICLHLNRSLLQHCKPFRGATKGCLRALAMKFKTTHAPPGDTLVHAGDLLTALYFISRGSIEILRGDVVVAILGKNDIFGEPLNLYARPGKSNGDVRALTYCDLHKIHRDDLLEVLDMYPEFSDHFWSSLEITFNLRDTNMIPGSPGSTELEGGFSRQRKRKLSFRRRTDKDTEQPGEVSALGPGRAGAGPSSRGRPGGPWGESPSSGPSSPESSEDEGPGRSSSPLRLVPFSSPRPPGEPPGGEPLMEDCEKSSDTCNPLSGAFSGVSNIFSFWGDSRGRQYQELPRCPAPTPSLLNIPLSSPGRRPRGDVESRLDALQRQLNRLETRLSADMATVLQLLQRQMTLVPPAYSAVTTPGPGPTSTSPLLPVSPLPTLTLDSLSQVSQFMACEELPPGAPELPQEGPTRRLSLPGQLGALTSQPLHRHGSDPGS

Take `CNC(=O)Cn1c(=O)n(C2CCN(CCC(Oc3cc(OC)ccc3C)C(C)C)CC2)c2ccccc21` (racemic): in data set [1], the Ki was determined as 56 nM. Also, in data set [2], the TD50 came out at 4.7 µmol/kg. Besides, the Activity with Canis familiaris is recorded as 10%.
